In US20030224038A1, “Cross-linkable phosphonate-containing supramolecular complexes and their use for delivery of therapeutic and diagnostic agents” (priority 2002, published 2003):

Legend:
[1] = TEM imaging of negatively stained dodeca-5,7-diynoyl phosphonic acid vesicles (size); type: physicochemical
Protocol: Twice the value of the CMC determined for n-dodecanephosphonic acid (2.94×10^−4 M)^4 was used to assure aggregate formation in these experiments due to the limited amount of the final product. All samples were prepared in the manner described by Schulz, supra, using solutions buffered to a pH of 5.5 with 5 mM MES.
Samples prepared in the above manner were imaged using TEM by negatively staining the samples with 1% uranyl acetate. FIG. 2 is a picture of unpolymerized vesicles of dodeca-5,7-diynoyl phosphonic acid within four days of their initial preparation. It appears from this micrograph that the aggregates are small and relatively spherical compared to the fully saturated aggregates of n-dodecanephosphonic acid prepared as described hereinbelow. The average size of these vesicles is roughly 50 nm in diameter with the sizes of individual aggregates ranging from 4 nm to over 400 nm. […] This behavior was only observed with freshly prepared aggregates prior to their exposure to light. One explanation for this behavior is that it represents an artifact of drying the sample in the presence of the metal stain used to visualize it.
FIG. 3 is a micrograph of the same sample after one week. It is noteworthy that the vesicles are still spherical though they now appear to be smaller and have a more irregular exterior surface. […] Moreover, there was no evidence of the rolled cylinders previously imaged in the fresh aggregate solutions.

[2] = Dissolution in buffered aqueous solution; type: physicochemical
[3] = pH stability of n-dodecanephosphonic acid aggregates; type: physicochemical; conditions: minimal structural changes
Protocol: (§1) An aggregate was prepared using n-dodecanephosphonic acid. Specifically, a 3×10^−4 molar (on average) solution of n-dodecanephosphonic acid was used, which was prepared by adding 17 mg dodecanephosphonic acid to 250 mL of a 5 mM solution of morpholinoethanesulfonic acid (MES) buffer solution. This solution was heated in a boiling water bath for 40-60 minutes. The solution was then cooled and allowed to sit undisturbed for 3 days (following Shulz' procedure (21)). This preparation was used to produce the desired micelles and the reported critical micelle concentration (CMC) was independently confirmed through measurement of the surface tension by means of a Wilhelmy Plate Balance (22). […] It has also been determined that these aggregates are stable over the pH range of 4-6, with minimal structural changes.

[4] = TEM size of n-dodecanephosphonic acid aggregates, metal-free and metallated with iron salts; type: physicochemical; conditions: metal-free aggregates, 3×10^−4 molar in 5 mM MES
Protocol: as §1
The choice of biologically compatible metal ion used to bind to the micelle exterior directly influences the size and the shape of the resulting aggregates. Iron (III) salts are preferred because they are relatively inexpensive, readily available in several simple forms and known to be biologically compatible. However, other metal ions may be used if desired, including, without limitation, Zr (IV), Mg(II), Ca(II), Co(II) and Zn(II) salts. […]

[5] = reported value, independently confirmed by surface tension measurement; cited from earlier work

Row | average size of aggregates (diameter) ([1]; same sample after one week) | largest vesicles present in the sample ([1]; same sample after one week) | average size of vesicles (diameter) ([1]; unpolymerized vesicles, within four days of preparation, pH 5.5, 5 mM MES) | pH range over which aggregates are stable [3] | average diameter of aggregates [4] | SMILES | solubility in buffered aqueous solutions [2] | critical micelle concentration (CMC) [5]
1 | ~50 nm | ≤ 100 nm | roughly 50 nm |  |  | CCCCC#CC#CCCCC(=O)P(=O)(O)O [dodeca-5,7-diynoyl phosphonic acid, Dodeca-5,7-diynoyl phosphonic acid] | readily dissolves in buffered aqueous solutions to form vesicles | 
2 |  |  |  | 4-6 | 20-120 nm | CCCCCCCCCCCCP(=O)(O)O [n-dodecanephosphonic acid] |  | 294 µM
